This note sets out measurements from patent publication US10788497B2, “Method for detecting oxidising species” (ECOLE POLYTECHNIQUE, priority 2015, dated 2020).

This assay relates to EGFR (Epidermal Growth Factor Receptor). Nature of the assay: Hydrogen peroxide production in vascular smooth muscle cells after endothelin-1 stimulation, with or without EGFR inhibition, measured with YAG:Ce and reduced GdVO4:Eu nanoparticles. The conditions noted are these: mouse vascular smooth muscle cells; 270 nM endothelin-1; AG1478 applied 30 min before stimulation and added to the observation medium. In kind it is cell-based. On the procedure: Firstly, mammalian cells were prepared. For this purpose, mouse vascular smooth muscle cells (primary culture) were cultured in RPMI (“Roswell Park Memorial Institute” medium) containing 10% of fetal calf serum and antibiotics, in the present case penicillin and streptomycin. When confluence reaches 80%, the cells are taken and deposited on glass slides. In this particular case, 1.5×10^4 cells are typically arranged on a glass slide. The cells are then cultured on the slides for forty-eight hours in the complete culture medium, and then in a medium without serum for twenty-four hours.
In addition, a stable colloidal solution of […] with a concentration roughly equal to 1 mM is prepared. […]
Then a slide with cells loaded with nanoparticles is placed on a sample holder and 1 mL of buffered physiological medium (HBSS/1 mM HEPES) is added. […] After fifty seconds of observation, the initial medium is replaced with physiological medium containing 270 nM of endothelin-1 (ET-1) and the luminescence of individual nanoparticles is observed for several minutes on a full-field sensor (EM-CCD ImageEM camera, Hamamatsu). […]
Next, the variations in intensity of the particles observed (doped with Ce or Eu) over time are determined using image analysis or calculation software (for example Matlab). Each curve obtained is normalized, taking the first values measured for reference. […]

SMILES strings stand for the structures.

With `COc1cc2ncnc(Nc3cccc(Cl)c3)c2cc1OC` [AG1478], the “contribution of the EGFR pathway to hydrogen peroxide production (inhibited cells produce half as much hydrogen peroxide as the normal cells)” value is 50%.
